Measurements as given in US20250009924A1, “Indane Derivatives for Malodor Counteraction” (Firmenich SA, priority 2015, published 2025).

Columns and labels:
[1] = system: indole-responsive olfactory sensory neurons; assay: Ca2+ imaging of olfactory sensory neurons, antagonist screening against indole; format: cell-based; details: 25 μM indole + 125 μM MOC compound as binary mixture; percentage of malodor-responsive OSN population inhibited by more than 10% (modulation values less than −10%)
Method: (§1) Identification of malodor-sensitive olfactory neurons was performed as previously described in WO 2014/210582. Identification of antagonist compounds that inhibit the response of malodor-sensitive olfactory neurons to the target malodor was performed according to Kajiya et al (2001) (K. Kajiya, et al in The Journal of Neuroscience, (2001) 21, 6018-6025).
(§2) Olfactory sensory neurons were stimulated with 25 μM indole (MO) and 125 μM MOC either alone or as a binary mixture. By comparing the peak value of the calcium-induced fluorescence ratio change induced by exposure to the target MO compound to that of the mixture of MO+MOC candidate, a “modulation value” was calculated. The larger the difference between the two peak values, the greater the magnitude of the modulation value. If the peak value for the MO was larger than that of the MO+MOC, the modulation value was negative, whilst the inverse produced positive modulation values. A modulation value was calculated for each cell responding to the positive-control stimulus forskolin (Pos) and the MO compound, but not to the negative-control buffer stimulus (Neg). For each candidate MOC compound, a baseline ‘modulation value’ was obtained by repeated stimulations of olfactory neurons with indole alone (left box plot in B, D, F). The percentage of target malodor-responsive cells with negative modulation values less than −10% was plotted on a bar chart. Population data are represented as box plots, where the interquartile range (25-75th percentiles) of olfactory sensory neuron modulation is contained within the box, with the median indicated by the black bar and the 95th percentile by the arms.
Olfactory sensory neurons were stimulated with 25 μM indole malodor and 125 μM candidate MOC compound as a binary mixture.

[2] = Binary mixtures of lily-of-the-valley odorants with malodor, perception of fecal and animal note; details: the fecal and animal note remains clearly perceptible
[3] = Air dilution olfactometry sensory panel, indole vs indole + compound; format: in vivo, human; set-up: key to Freshness score: linear labeled scale, no freshness to very fresh; key to Animal/Fecal/Tar score: linear labeled scale, no to very animal/fecal/tar; key to Pleasantness score: linear labeled scale, very unpleasant to very pleasant; details: for Freshness score / Pleasantness score / Animal/Fecal/Tar score: indole + compound at individualized iso-intense concentrations; for Freshness score: indole alone 2.2 ± 0.2; for Pleasantness score: indole alone 2.6 ± 0.2; for Animal/Fecal/Tar score: linear labeled scale, indole alone 6.9 ± 0.2; for Animal/Fecal/Tar Reduction: indole + compound vs indole alone, iso-intense levels
Method: Air dilution olfactometry was used to measure all psychophysical data of individual and mixed odorants. Odorized flows of air with precisely set concentrations were prepared by the evaporation of a known flux of odorant in a determined flow of air. The flux of odorant was delivered through a microsyringe operated by a calibrated micromotor into a heated vessel under a steady nitrogen flow. The odorant was vaporized and swept away by the nitrogen, and this primary flow was later diluted with humidified air to the desired concentration. Odorants can be presented one by one in olfactometers (see as a reference “Multidimensional visualization of physical and perceptual data leading to a creative approach in fragrance development”, C. Vuilleumier, M. van de Waal, H. Fontannaz, I. Cayeux and P. A. Rebetez, in Perfumer & Flavourist, 33, 55 (2008)); alternatively, a machine blending up to 12 flows of odorants in variable and adjustable proportions could be used. A sniffing outlet delivered a continuous and adjustable odorized air flow. The upper working limit was determined by the vapor pressure of the odorants at room temperature. The odorized flow was delivered at a temperature of 26° C., close to the temperature within the nose. The combination of air (540 l/h) and nitrogen (60 l/h) represented a total gas flow of 600 l/h with a relative humidity of 50%. The speed of injection of the solutions in the evaporation chamber was modulated and controlled for each subject and adjusted to obtain a medium perceived intensity (see above reference, for instance FIG. 4).
Standardized psychophysical procedures were used to determine olfactory detection thresholds (triangle testing) or perceived intensity, after a training period (see above reference).
A method was designed as an iterative process to obtain dose-response relationship and odor detection threshold of perfumery ingredients or malodorants with a minimum number of experiments (see FIG. 5 in the above reference).
FIG. 2 reports the radar plot of indole alone and indole+compound 1 obtained with a panel of 13 persons using a sensory protocol to evaluate the potential antagonists versus indole. The protocol involves two steps: • Step 1: the participants evaluated the tested ingredients and indole independently to adjust their individualized concentrations by changing the rate of injection (see above description and reference) to elicit a medium intensity perception for each chemical. These concentrations, corresponding to iso-intense levels, were applied in the second step of the process. The range of concentrations to be submitted to subjects was determined from dose-response relationships for the selected ingredients and indole. In the present experiment the molar ratio Compound 1/indole varied according to the individuals from about 1/1 to 10/1 (typical preferred individual range is between 2.5/1 and 4.5/1). • Step 2: Blind sensory evaluations were set; no information was disclosed to the participants on the submitted odorous stimuli. The subjects had to evaluate first indole alone at its individualized concentration and rate the following three descriptors on a linear labeled scale: • Pleasantness (From «Very unpleasant» to «Very pleasant») • Freshness (From «No Freshness» to «Very fresh») • Malodor character: Animal/Fecal/Tar (From «No . . . » to «Very . . . »)
The next submission, 30 seconds after the previous one to avoid odor adaptation, involved the simultaneous injection of indole and of the tested ingredient at individualized concentrations. The same descriptors were rated.

[4] = system: DMTS OSNs (olfactory sensory neurons); assay: Ca2+ imaging of olfactory sensory neurons, antagonist screening against dimethyl trisulfide (DMTS); format: cell-based; details: 50 μM DMTS + 250 μM MOC compound as binary mixture; percentage of malodor-responsive OSN population inhibited by more than 10%
Method: as §1, §2
Olfactory sensory neurons were stimulated with 50 μM DMTS malodor and 250 μM candidate MOC compound as a binary mixture.

[5] = system: Skatole OSNs (olfactory sensory neurons); assay: Ca2+ imaging of olfactory sensory neurons, antagonist screening against skatole; format: cell-based; details: 50 μM skatole + 250 μM MOC compound as binary mixture; percentage of malodor-responsive OSN population inhibited by more than 10%
Method: as §1, §2
Olfactory sensory neurons were stimulated with 50 μM skatole malodor and 250 μM candidate MOC compound as a binary mixture.

## CCC1(CO)Cc2ccc(C)cc2C1 (stereo not drawn) [Compound 11, 2-ethyl-5-methyl-2-indanmethanol]
[1]
  Proportion of Indole OSNs: 35%

## CC1(CO)Cc2ccc(C(C)(C)C)cc2C1 (stereo not drawn) [Compound 13, 5-tert-butyl-2-methyl-2-indanmethanol]
[1]
  Proportion of Indole OSNs: 54%

## CC(C)(C)c1ccc(CCC=O)cc1 [3-(4-tert-butylphenyl)propanal]
[2]
  malodor reduction (reduction of the negative odor character): fail to produce such malodor reduction

## Cc1ccc2c(c1C)CC(C)(CO)C2 (stereo not drawn) [Compound 9, (2,4,5-trimethyl-2,3-dihydro-1H-inden-2-yl)methanol]
[1]
  Proportion of Indole OSNs: 78%

## CCc1ccc2c(c1)CC(C)(CO)C2 (stereo not drawn) [Compound 8, 5-ethyl-2-methyl-2-indanmethanol]
[1]
  Proportion of Indole OSNs: 30%

## COCC1(C)Cc2ccc(C)cc2C1 (stereo not drawn) [Compound 2, (2,5-dimethyl-2,3-dihydro-1H-inden-2-yl)methyl methyl ether]
[1]
  Proportion of Indole OSNs: 43%
[3]
  Freshness score: 4.7 ± 1.3
  Pleasantness score: 3.9 ± 0.8
  Animal/Fecal/Tar score: 3.5 ± 1.5
  Animal/Fecal/Tar Reduction: 50 percentage

## CC(C=O)Cc1ccc(C(C)(C)C)cc1 (stereo not drawn) [3-(4-tert-butylphenyl)-2-methylpropanal]
[2]
  malodor reduction (reduction of the negative odor character): fail to produce such malodor reduction

## CC(=O)OCC1(C)Cc2ccc(C)cc2C1 (stereo not drawn) [Compound 10, (2,5-dimethyl-2-indanyl)methyl acetate]
[1]
  Proportion of Indole OSNs: 42%

## CC(=O)C1(C)Cc2ccc(C)cc2C1 (stereo not drawn) [Compound 6, 1-(2,5-dimethyl-2,3-dihydro-1H-inden-2-yl)ethanone]
[4]
  Proportion of DTMS OSNs: 94%
[5]
  Proportion of Skatole OSNs: 92%
[1]
  Proportion of Indole OSNs: 69%
[3]
  Freshness score: 5.2 ± 1.6
  Pleasantness score: 5.8 ± 1.4
  Animal/Fecal/Tar score: 2.2 ± 1.2
  Animal/Fecal/Tar Reduction: 68 percentage

## CC1(CO)Cc2ccccc2C1 [Compound 3, (2-methyl-2,3-dihydro-1H-inden-2-yl)methanol]
[1]
  Proportion of Indole OSNs: 41%
[3]
  Freshness score: 5.2 ± 1.5
  Pleasantness score: 6.0 ± 1.4
  Animal/Fecal/Tar score: 3.1 ± 1.3
  Animal/Fecal/Tar Reduction: 55 percentage

## Cc1ccc2c(c1)CCC(C)(CO)C2 (stereo not drawn) [Compound 7, (2,6-dimethyl-1,2,3,4-tetrahydro-2-naphthalenyl)methanol]
[1]
  Proportion of Indole OSNs: 54%

## Cc1cc(C)c2c(c1)CC(C)(CO)C2 (stereo not drawn) [Compound 16, (2,4,6-trimethyl-2,3-dihydro-1H-inden-2-yl)methanol]
[1]
  Proportion of Indole OSNs: 14%
[3]
  Freshness score: 6.2 ± 1.6
  Pleasantness score: 6.4 ± 1.3
  Animal/Fecal/Tar score: 2.6 ± 1.4
  Animal/Fecal/Tar Reduction: 62 percentage

## COc1ccc2c(c1)CC(C)(CO)C2 (stereo not drawn) [Compound 17, (5-methoxy-2-methyl-2,3-dihydro-1H-inden-2-yl)methanol]
[1]
  Proportion of Indole OSNs: 23%

## Cc1cccc2c1CC(C)(CO)C2 (stereo not drawn) [Compound 15, 2,4-dimethyl-2-indanmethanol]
[1]
  Proportion of Indole OSNs: 17%

## CC1(C)CCc2ccc(CCC=O)cc21 [3-(3,3-dimethyl-2,3-dihydro-1h-inden-5-yl)propanal]
[2]
  malodor reduction (reduction of the negative odor character): fail to produce such malodor reduction

## Cc1ccc2c(c1)CC(C)(CO)C2 (stereo not drawn) [Compound 1, 2,5-dimethyl-2-indanemethanol]
[4]
  Proportion of DTMS OSNs: 69%
[5]
  Proportion of Skatole OSNs: 82%
[1]
  Proportion of Indole OSNs: 56%
[3]
  Freshness score: 6.7 ± 0.9
  Pleasantness score: 7.8 ± 0.7
  Animal/Fecal/Tar score: 1.3 ± 0.5
  Animal/Fecal/Tar Reduction: 81 percentage

## Cc1ccc2c(c1)CC(CO)C2 (stereo not drawn) [Compound 4, (5-methyl-2,3-dihydro-1H-inden-2-yl)methanol]
[1]
  Proportion of Indole OSNs: 41%
[3]
  Freshness score: 6.6 ± 1.5
  Pleasantness score: 7.2 ± 1.2
  Animal/Fecal/Tar score: 2.1 ± 1.1
  Animal/Fecal/Tar Reduction: 70 percentage

## CC(C)c1ccc2c(c1)CC(C)(CO)C2 (stereo not drawn) [Compound 12, 5-isopropyl-2-methyl-2-indanmethanol]
[1]
  Proportion of Indole OSNs: 57%

## Cc1cc2c(cc1C)CC(C)(CO)C2 [Compound 14, 2,5,6-trimethyl-2-indanmethanol]
[1]
  Proportion of Indole OSNs: 20%

## CC(=O)OCC1(C)Cc2ccccc2C1 [Compound 5, (2-methyl-2,3-dihydro-1H-inden-2-yl)methyl acetate]
[4]
  Proportion of DTMS OSNs: 82%
[5]
  Proportion of Skatole OSNs: 87%
[1]
  Proportion of Indole OSNs: 77%
[3]
  Freshness score: 5.2 ± 1.2
  Pleasantness score: 5.7 ± 1.1
  Animal/Fecal/Tar score: 2.7 ± 1.0
  Animal/Fecal/Tar Reduction: 61 percentage
